Columns and labels:
BTA121 = biological target: T1, BTA121 (Borrelia turicatae, UniProt A0A0R9P931); assay: radioligand binding, Q-sepharose separation, scintillation counting
T1 construct: signal peptide and further N-terminal residues removed, putative PARP domain kept; N-terminal dodeca-His tag cut with TEV protease; E. coli BL21-CodonPlus(DE3)-RIPL; predominantly monomer, some dimer
Source text: radioligand binding, Q-sepharose separation, scintillation counting on BTA121 | BTA121 binds palmitate with micromolar Kd

[1] = biological target: Recombinant BTA121 (Borrelia turicatae), dodeca-His tag cleaved (Borrelia turicatae); assay: SEC; Phenomenex Yarra 3 µ SEC-2000 HPLC column, 1.0 mg/mL, 50 µg loaded, room temperature, 0.5 mL/min; molecular weight estimated with Bio-rad gel filtration standard

Row | Compound | Kd (BTA121) | stoichiometry N [1]
1 | CCCCCCCCCCCCCCCC(=O)O [palmitate] | 229 µM | –
2 | Recombinant BTA121 (Borrelia turicatae), dodeca-His tag cleaved (from UniProt A0A0R9P931 1-445) (natural protein) | – | 2

Reference: article PMC5681642
